Source: patent US20200085791A1, “[(PHENYLSULFONYL)OCTAHYDRO-EPIMINOISOINDOL-YL](1H-1,2,3-TRIAZOL-5-YL)METHANONES” (Bayer Pharma Aktiengesellschaft, priority 2016, published 2020)

Target: T1, recombinant human AKR1C3 (Aldo-keto reductase family 1 member C3) (Homo sapiens, UniProt P42330)
T1 construct: GST (cleaved yes); made in house; host or cells: E. coli
T1 sequence (P42330 1-323): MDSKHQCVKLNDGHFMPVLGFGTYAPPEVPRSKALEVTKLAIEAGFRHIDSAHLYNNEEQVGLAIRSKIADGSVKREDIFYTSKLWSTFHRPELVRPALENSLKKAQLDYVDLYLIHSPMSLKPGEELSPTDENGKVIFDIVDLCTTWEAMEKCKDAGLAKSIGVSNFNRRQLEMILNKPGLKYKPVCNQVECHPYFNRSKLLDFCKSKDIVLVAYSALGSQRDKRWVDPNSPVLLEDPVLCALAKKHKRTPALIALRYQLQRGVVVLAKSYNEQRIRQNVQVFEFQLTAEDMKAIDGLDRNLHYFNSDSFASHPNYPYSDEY
Experiment: In Vitro Assay 1: AKR1C3-inhibitory activity (Coumberone to Coumberol fluorescence assay)
Format: biochemical
Conditions: recombinant enzyme, Coumberone 0.3 μM, NADPH 10 μM, 15 min pre-incubation, 4-parameter fit; average or median values
Procedure: In Vitro Assay 1: AKR1C3-Inhibitory Activity
The AKR1C3-inhibitory activity of the substances of the present invention was measured in the AKR1C3 assay described in the paragraphs below.
Essentially, the enzyme activity is measured by quantification of the Coumberol from Coumberone (Halim, M., Yee, D. J., and Sames, D., J. AM. CHEM. SOC. 130, 14123-14128 (2008) and Yee, D. J., Balsanek, V., Bauman, D. R., Penning, T. M., and Sames, D., Proc. Natl. Acad. Sci. USA 103, 13304-13309 (2006)). In this test, the increase of the highly fluorescent Coumberol by NADPH- (nicotinamide adenine dinucleotide phosphate)-dependent reduction of the non-fluorescent Coumberone by AKR1C3 can be determined.
The enzyme used was recombinant human AKR1C3 (Aldo-keto reductase family 1 member C3) (GenBank Accession No. NM_003739). This was expressed in E. coli as GST (glutathione S transferase) fusion protein and purified by glutathione Sepharose affinity chromatography. The GST was removed by digestion with thrombin and subsequent size exclusion chromatography (Dufort, I., Rheault, P., Huang, X F., Soucy, P., and Luu-The, V., Endocrinology 140, 568-574 (1999)).
For the assay, 50 nl of a 100-fold concentrated solution of the test substance in DMSO were pipetted into a black low-volume 384-well microtiter plate (Greiner Bio-One, Frickenhausen, Germany), 2.5 μl of a solution of AKR1C3 in assay buffer [50 mM potassium phosphate buffer pH 7, 1 mM DTT, 0.0022% (w/v) Pluronic F-127, 0.01% BSA (w/v) and protease inhibitor cocktail (Complete, EDTA-free Protease Inhibitor Cocktail from Roche)] were added and the mixture was incubated for 15 min to allow pre-binding of the substances to the enzyme prior to the enzyme reaction. The enzyme reaction was then started by addition of 2.5 μl of a solution of NADPH (20 μM→final concentration in 5 μl of assay volume is 10 μM) and Coumberone (0.6 μM→final concentration in 5 μl of assay volume is 0.3 μM) in assay buffer, and the resulting mixture was incubated at […] for the reaction time of typically 90 min. The concentration of the AKR1C3 and the reaction time was adapted to the respective activity of the enzyme preparation and adjusted such that the assay was carried out in the linear range.
Typical AKR1C3 concentrations were in the region of 1 nM. The reaction was stopped by addition of 2.5 μl of a stop solution consisting of the inhibitor EM-1404 [F. Labrie et al. U.S. Pat. No. 6,541,463, 2003] (3 μM→final concentration in 7.5 μl of assay volume is 1 μM). The fluorescence of the Coumberole was then measured at 520 nm (excitation at 380 nm) using a suitable measuring instrument (Pherastar from BMG Labtechnologies). The intensity of the fluorescence was used as a measure of the amount of Coumberole formed and thus of the enzyme activity of AKR1C3. The data were normalized (enzyme reaction without inhibitor—0% inhibition; all other assay components, but no enzyme=100% inhibition).

O=C(c1cnn[nH]1)N1C[C@@H]2[C@H](C1)[C@H]1CC[C@@H]2N1S(=O)(=O)c1cccc2nsnc12 [Example 45, [(3aR,4R,7S,7aS)-8-(2,1,3-benzothiadiazol-4-ylsulfonyl)octahydro-2H-4,7-epiminoisoindol-2-yl](1H-1,2,3-triazol-5-yl)methanone]
IC50: 109 nM

O=C(c1cnn[nH]1)N1C[C@@H]2[C@H](C1)[C@H]1CC[C@@H]2N1S(=O)(=O)c1cccc2nonc12 [Example 46, [(3aR,4R,7S,7aS)-8-(2,1,3-benzoxadiazol-4-ylsulfonyl)octahydro-2H-4,7-epiminoisoindol-2-yl](1H-1,2,3-triazol-5-yl)methanone]
IC50: 59 nM

COc1ccc(Cl)cc1S(=O)(=O)N1[C@@H]2CC[C@H]1[C@@H]1CN(C(=O)c3cnn[nH]3)C[C@@H]12 [Example 47, {(3aR,4R,7S,7aS)-8-[(5-chloro-2-methoxyphenyl)sulfonyl]octahydro-2H-4,7-epiminoisoindol-2-yl}(1H-1,2,3-triazol-5-yl)methanone]
IC50: 85 nM

O=C(c1cnn[nH]1)N1C[C@@H]2[C@H](C1)[C@H]1CC[C@@H]2N1S(=O)(=O)c1ccc2nsnc2c1 [Example 48, [(3aR,4R,7S,7aS)-8-(2,1,3-benzothiadiazol-5-ylsulfonyl)octahydro-2H-4,7-epiminoisoindol-2-yl](1H-1,2,3-triazol-5-yl)methanone]
IC50: 213 nM

O=C(c1cnn[nH]1)N1C[C@@H]2[C@H](C1)[C@H]1CC[C@@H]2N1S(=O)(=O)c1ccc(F)c(F)c1F [Example 49, 1H-1,2,3-triazol-5-yl{(3aR,4R,7S,7aS)-8-[(2,3,4-trifluorophenyl)sulfonyl]octahydro-2H-4,7-epiminoisoindol-2-yl}methanone]
IC50: 148 nM

N#Cc1cc(S(=O)(=O)N2[C@@H]3CC[C@H]2[C@@H]2CN(C(=O)c4cnn[nH]4)C[C@@H]23)ccc1F [Example 50, 2-fluoro-5-{[(3aR,4R,7S,7aS)-2-(1H-1,2,3-triazol-5-ylcarbonyl)octahydro-1H-4,7-epiminoisoindol-8-yl]sulfonyl}benzonitrile]
IC50: 999 nM

O=C(c1cnn[nH]1)N1C[C@@H]2[C@H](C1)[C@H]1CC[C@@H]2N1S(=O)(=O)c1cc(Cl)ccc1F [Example 51, {(3aR,4R,7S,7aS)-8-[(5-chloro-2-fluorophenyl)sulfonyl]octahydro-2H-4,7-epiminoisoindol-2-yl}(1H-1,2,3-triazol-5-yl)methanone]
IC50: 3 nM

O=C(c1cnn[nH]1)N1C[C@@H]2[C@H](C1)[C@H]1CC[C@@H]2N1S(=O)(=O)c1cc(F)c(F)cc1F [Example 52, 1H-1,2,3-triazol-5-yl{(3aR,4R,7S,7aS)-8-[(2,4,5-trifluorophenyl)sulfonyl]octahydro-2H-4,7-epiminoisoindol-2-yl}methanone]
IC50: 21 nM

Cc1ccc(Cl)cc1S(=O)(=O)N1[C@@H]2CC[C@H]1[C@@H]1CN(C(=O)c3cnn[nH]3)C[C@@H]12 [Example 53, {(3aR,4R,7S,7aS)-8-[(5-chloro-2-methylphenyl)sulfonyl]octahydro-2H-4,7-epiminoisoindol-2-yl}(1H-1,2,3-triazol-5-yl)methanone]
IC50: 2 nM

COc1ccccc1S(=O)(=O)N1[C@@H]2CC[C@H]1[C@@H]1CN(C(=O)c3cnn[nH]3)C[C@@H]12 [Example 54, {(3aR,4R,7S,7aS)-8-[(2-methoxyphenyl)sulfonyl]octahydro-2H-4,7-epiminoisoindol-2-yl}(1H-1,2,3-triazol-5-yl)methanone]
IC50: 13 nM

Cc1ccc(Br)cc1S(=O)(=O)N1[C@@H]2CC[C@H]1[C@@H]1CN(C(=O)c3cnn[nH]3)C[C@@H]12 [Example 55, {(3aR,4R,7S,7aS)-8-[(5-bromo-2-methylphenyl)sulfonyl]octahydro-2H-4,7-epiminoisoindol-2-yl}(1H-1,2,3-triazol-5-yl)methanone]
IC50: 4 nM

COC(=O)c1cccc(S(=O)(=O)N2[C@@H]3CC[C@H]2[C@@H]2CN(C(=O)c4cnn[nH]4)C[C@@H]23)c1 [Example 56, methyl 3-{[(3aR,4R,7S,7aS)-2-(1H-1,2,3-triazol-5-ylcarbonyl)octahydro-1H-4,7-epiminoisoindol-8-yl]sulfonyl}benzoate]
IC50: 798 nM

O=C(c1cnn[nH]1)N1C[C@@H]2[C@H](C1)[C@H]1CC[C@@H]2N1S(=O)(=O)c1ccc2c(c1)OCO2 [Example 57, [(3aR,4R,7S,7aS)-8-(1,3-benzodioxol-5-ylsulfonyl)octahydro-2H-4,7-epiminoisoindol-2-yl](1H-1,2,3-triazol-5-yl)methanone]
IC50: 267 nM

COc1cc(C)ccc1S(=O)(=O)N1[C@@H]2CC[C@H]1[C@@H]1CN(C(=O)c3cnn[nH]3)C[C@@H]12 [Example 58, {(3aR,4R,7S,7aS)-8-[(2-methoxy-4-methylphenyl)sulfonyl]octahydro-2H-4,7-epiminoisoindol-2-yl}(1H-1,2,3-triazol-5-yl)methanone]
IC50: 110 nM

NC(=O)c1cccc(S(=O)(=O)N2[C@@H]3CC[C@H]2[C@@H]2CN(C(=O)c4cnn[nH]4)C[C@@H]23)c1 [Example 60, 3-{[(3aR,4R,7S,7aS)-2-(1H-1,2,3-triazol-5-ylcarbonyl)octahydro-1H-4,7-epiminoisoindol-8-yl]sulfonyl}benzamide]
IC50: 501 nM

N#Cc1c(Cl)cccc1S(=O)(=O)N1[C@@H]2CC[C@H]1[C@@H]1CN(C(=O)c3cnn[nH]3)C[C@@H]12 [Example 61, 2-chloro-6-{[(3aR,4R,7S,7aS)-2-(1H-1,2,3-triazol-5-ylcarbonyl)octahydro-1H-4,7-epiminoisoindol-8-yl]sulfonyl}benzonitrile]
IC50: 84 nM

O=C(c1cnn[nH]1)N1C[C@@H]2[C@H](C1)[C@H]1CC[C@@H]2N1S(=O)(=O)c1cccc2c1OCC2 [Example 62, [(3aR,4R,7S,7aS)-8-(2,3-dihydro-1-benzofuran-7-ylsulfonyl)octahydro-2H-4,7-epiminoisoindol-2-yl](1H-1,2,3-triazol-5-yl)methanone]
IC50: 78 nM

O=C(c1cnn[nH]1)N1C[C@@H]2[C@H](C1)[C@H]1CC[C@@H]2N1S(=O)(=O)c1cc(F)ccc1Cl [Example 63, {(3aR,4R,7S,7aS)-8-[(2-chloro-5-fluorophenyl)sulfonyl]octahydro-2H-4,7-epiminoisoindol-2-yl}(1H-1,2,3-triazol-5-yl)methanone]
IC50: 2 nM

O=C(c1cnn[nH]1)N1C[C@@H]2[C@H](C1)[C@H]1CC[C@@H]2N1S(=O)(=O)c1cccc(F)c1Cl [Example 64, {(3aR,4R,7S,7aS)-8-[(2-chloro-3-fluorophenyl)sulfonyl]octahydro-2H-4,7-epiminoisoindol-2-yl}(1H-1,2,3-triazol-5-yl)methanone]
IC50: 12 nM

COc1cc(F)ccc1S(=O)(=O)N1[C@@H]2CC[C@H]1[C@@H]1CN(C(=O)c3cnn[nH]3)C[C@@H]12 [Example 65, {(3aR,4R,7S,7aS)-8-[(4-fluoro-2-methoxyphenyl)sulfonyl]octahydro-2H-4,7-epiminoisoindol-2-yl}(1H-1,2,3-triazol-5-yl)methanone]
IC50: 45 nM

COc1ccc(C#N)cc1S(=O)(=O)N1[C@@H]2CC[C@H]1[C@@H]1CN(C(=O)c3cnn[nH]3)C[C@@H]12 [Example 66, 4-methoxy-3-{[(3aR,4R,7S,7aS)-2-(1H-1,2,3-triazol-5-ylcarbonyl)octahydro-1H-4,7-epiminoisoindol-8-yl]sulfonyl}benzonitrile]
IC50: 625 nM

N#Cc1ccc(Cl)c(S(=O)(=O)N2[C@@H]3CC[C@H]2[C@@H]2CN(C(=O)c4cnn[nH]4)C[C@@H]23)c1 [Example 67, 4-chloro-3-{[(3aR,4R,7S,7aS)-2-(1H-1,2,3-triazol-5-ylcarbonyl)octahydro-1H-4,7-epiminoisoindol-8-yl]sulfonyl}benzonitrile]
IC50: 33 nM
